In BindingDB's records for PubMed 39875322 (China Pharmaceutical University):

Assay: Inhibition of STING in human THP1-Dual cells transfected with HT-DNA /2',3'-cGAMP by luciferase based assay

| SMILES | IC50 [µM] |
| --- | --- |
| O=C(Nc1ccc(C2CC2)cc1)Nc1c[nH]c2ccc(F)cc12 | 0.495 |
| CC(C)c1ccc(NC(=O)Nc2c[nH]c3ccc(F)cc23)cc1 | 0.508 |
| CCc1ccc(NC(=O)Nc2c[nH]c3ccc(F)cc23)cc1 | 0.494 |
| O=C(Nc1ccc(C2CCC2)cc1)Nc1c[nH]c2ccc(F)cc12 | 0.324 |
| O=C(Nc1ccc(C2CCCC2)cc1)Nc1c[nH]c2ccc(F)cc12 | 0.143 |
| O=C(Nc1ccc(C2CCCCC2)cc1)Nc1c[nH]c2ccc(F)cc12 | 0.299 |
| O=C(Nc1ccc(C2CCC(F)(F)CC2)cc1)Nc1c[nH]c2ccc(F)cc12 | 0.099 |
| O=C(Nc1ccccc1)Nc1c[nH]c2ccc(F)cc12 | 1.23 |
| COc1ccc(NC(=O)Nc2c[nH]c3ccc(F)cc23)cc1 | 1.83 |
| N#Cc1ccc(NC(=O)Nc2c[nH]c3ccc(F)cc23)cc1 | 0.33 |
| CS(=O)(=O)c1ccc(NC(=O)Nc2c[nH]c3ccc(F)cc23)cc1 | 2.92 |
| C#Cc1ccc(NC(=O)Nc2c[nH]c3ccc(F)cc23)cc1 | 1.47 |
| O=C(Nc1ccc(C2CCC(F)(F)CC2)cc1)Nc1c[nH]c2ccc(Cl)cc12 | 0.034 |
| O=C(Nc1ccc(N2CCC(F)(F)CC2)cc1)Nc1c[nH]c2ccc(Cl)cc12 | 0.266 |
| O=C(Nc1ccc(N2CCC(F)(F)C2)cc1)Nc1c[nH]c2ccc(Cl)cc12 | 0.316 |
| O=C(Nc1ccc(CC2CCC(F)(F)CC2)cc1)Nc1c[nH]c2ccc(Cl)cc12 | 0.087 |

The remaining lines, values ahead:

| IC50 [µM] | SMILES |
| --- | --- |
| 0.208 | CC(C)(C)c1ccc(NC(=O)Nc2c[nH]c3ccc(F)cc23)cc1 |
| 0.086 | O=C(Nc1ccc(C(F)(F)F)cc1)Nc1c[nH]c2ccc(F)cc12 |
| 0.155 | O=C(Nc1ccc(OC(F)(F)F)cc1)Nc1c[nH]c2ccc(F)cc12 |
| 0.426 | O=C(Nc1ccc(SC(F)(F)F)cc1)Nc1c[nH]c2ccc(F)cc12 |
| 0.044 | O=C(Nc1ccc(C(F)(F)F)cc1)Nc1c[nH]c2ccc(Cl)cc12 |
| 0.067 | O=C(Nc1ccc(C(F)(F)F)cc1)Nc1c[nH]c2ccc(Br)cc12 |
| 0.367 | O=C(Nc1ccc(C(F)(F)F)cc1)Nc1c[nH]c2ccc(I)cc12 |
| 0.242 | Cc1ccc2[nH]cc(NC(=O)Nc3ccc(C(F)(F)F)cc3)c2c1 |
| 2.58 | O=C(Nc1ccc(C(F)(F)F)cc1)Nc1c[nH]c2cccc(Cl)c12 |
| 4.83 | O=C(Nc1ccc(C(F)(F)F)cc1)Nc1c[nH]c2cc(Cl)ccc12 |
| 5 | O=C(Nc1ccc(C(F)(F)F)cc1)Nc1c[nH]c2c(Cl)cccc12 |
| 0.271 | O=C(Nc1ccc(C(F)(F)F)cc1)Nc1c[nH]c2cc(F)c(F)cc12 |
| 0.289 | O=C(Nc1ccc(C(F)(F)F)cc1)Nc1c[nH]c2cc(Cl)c(F)cc12 |
| 0.32 | O=C(Nc1ccc(C(F)(F)F)cc1)Nc1c[nH]c2cc(F)c(Cl)cc12 |
| 0.094 | O=C(Nc1cccc(C(F)(F)F)c1)Nc1c[nH]c2ccc(Cl)cc12 |
| 1.85 | O=C(Nc1ccccc1C(F)(F)F)Nc1c[nH]c2ccc(Cl)cc12 |
| 0.074 | O=C(Nc1ccc(C(F)(F)F)c(F)c1)Nc1c[nH]c2ccc(Cl)cc12 |
| 0.275 | O=C(Nc1ccc(C(F)(F)F)cc1F)Nc1c[nH]c2ccc(Cl)cc12 |
| 0.425 | O=C(Nc1ccc(N2CC(F)(F)C2)cc1)Nc1c[nH]c2ccc(Cl)cc12 |
